Test results from patent US6635664B1, “Insecticide compositions and method for destroying insects” (priority 1999, dated 2003).
Where “and” joins values, the source holds several entries; their conditions need not be identical. Equal values may be shown once.

How the values were obtained:
silverleaf whiteflies [1] = assay: Test Example 1: spray test on cabbage seedlings infested with silverleaf whiteflies; assay type: in vivo; settings: 50 ppm, total of adults and larvae on cabbage seedlings; for Number of surviving insects/pot after 8 days: 8 days after spray treatment; for Number of surviving insects/pot before: just before treatment
Experimental: (§1) Cabbage seedlings planted in 3 ounces plastic cup were placed in a net cage containing many living silverleaf whiteflies for 24 hours, so that many silverleaf whiteflies became parasitic on the cabbage seedlings. A designated amount of each of pyriproxyfen EC (commercial name, Lano emulsifiable concentrate : produced by Sumitomo Chemical Co., Ltd.), chlothianidine EC (emulsifiable concentrate prepared by mixing 10 parts of chlothianidine, 8 parts of polyoxyethylenealkyl aryl ether, 2 parts of sodium alkylarylsulfonate and 80 parts of xylene), and the present invention composition prepared according to formulation example 1 was diluted with water, and then sprayed over the cabbage seedlings with a spray gun. The number of silverleaf whiteflies (i.e., the total number of adults and larvae) surviving on the cabbage seedlings was examined just before and after 8 days from the treatment.

silverleaf whiteflies [2] = assay: Test Example 2: spray test on cabbage seedlings infested with silverleaf whiteflies (10:1 and 1:10 mixtures); assay type: in vivo; settings: 10 ppm; just before treatment; total of adults and larvae on cabbage seedlings
Experimental: as §1, with “pyriproxyfen EC.” for “pyriproxyfen EC”, “emulsifiable concentrate:” for “emulsifiable concentrate :”, “prepared by mixing the pyriproxyfen EC with chlothianidine EC at 10:1 and 1:10 by weight” for “prepared according to formulation example 1”

SMILES: CN/C(=N\[N+](=O)[O-])NCc1cnc(Cl)s1 [chlothianidine, (E)-1-(2-chlorothiazol-5-ylmethyl)-3-methyl-2-nitroguanidine]
- Number of surviving insects/pot after 8 days (silverleaf whiteflies [1]): 70 insects/pot
- Number of surviving insects/pot before (silverleaf whiteflies [1]): 66 insects/pot

SMILES: CC(COc1ccc(Oc2ccccc2)cc1)Oc1ccccn1 (centres unmarked) [pyriproxyfen, 4-phenoxyphenyl 2-(2-pyridyloxy)propyl ether]
- Number of surviving insects/pot after 8 days (silverleaf whiteflies [1]): 21 insects/pot
- Number of surviving insects/pot before (silverleaf whiteflies [1]): 65 insects/pot
- Number of surviving insects/pot before (silverleaf whiteflies [2]): 81 insects/pot and 62 insects/pot
